Test results: patent publication US5811512A, “Non-peptide peptidomimetics and related cyclic hexapeptides” (The Trustees of the University of Pennsylvania, priority 1996, dated 1998)
Where a SMILES comes first, the peptide text is derived from it. [ ]: non-standard residue; d: D form. Phe(4-F) = N[C@@H](Cc1ccc(F)cc1)C(=O)O; 1Nal = N[C@@H](Cc1cccc2ccccc12)C(=O)O; d(hPhe) = N[C@H](CCc1ccccc1)C(=O)O; Cha = N[C@@H](CC1CCCCC1)C(=O)O

How the values were obtained:
SRIF receptor = SRIF receptor affinity: displacement of 125I-CGP-23996 from AtT-20 cells; assay type: binding; settings: displacement of 125I-CGP-23996, AtT-20 cells
Description: The affinity of a variety of compounds for the SRIF receptor was determined by studying the displacement of ^125 I-CGP-23996 from AtT-20 cells using the method generally in accordance with Raynor and Reisine, Journal of Pharmacology and Experimental Therapeutics, 1989, 251;2, 510.

Compound `C[C@@H](O)[C@@H]1NC(=O)[C@H](Cc2ccc(F)cc2)NC(=O)[C@@H](Cc2c[nH]c3ccccc23)NC(=O)[C@H](Cc2ccccc2)NC(=O)[C@@H]2CCCN2C(=O)[C@H](Cc2ccccc2)NC1=O` [(17f), Cyclo (Phe-D-Trp-p-F-Phe-Thr-Phe-Pro)] (cyclo(FPF[dW][Phe(4-F)]T)) has an IC50 (HIV-1 protease) of 37 nM.

With `C[C@@H](O)[C@@H]1NC(=O)[C@H](Cc2ccc(F)cc2)NC(=O)[C@@H](Cc2c[nH]c3ccccc23)NC(=O)[C@H](Cc2cccc3ccccc23)NC(=O)[C@@H]2CCCN2C(=O)[C@H](Cc2ccccc2)NC1=O` [Compound (19), Cyclo (Nal-D-Trp-p-F-Phe-Thr-Phe-Pro)] (cyclo([1Nal][dW][Phe(4-F)]TFP)) the IC50 (HIV-1 protease) was 2.8 nM.

`C[C@@H](O)[C@@H]1NC(=O)[C@H](Cc2ccc(O)cc2)NC(=O)[C@@H](Cc2c[nH]c3ccccc23)NC(=O)[C@H](Cc2ccccc2)NC(=O)[C@@H]2CCCN2C(=O)[C@H](Cc2ccccc2)NC1=O` [(17c), Cyclo (Phe-D-Trp-Tyr-Thr-Phe-Pro)] (cyclo(FPF[dW]YT)) gave an IC50 (HIV-1 protease) of 2150 nM.

In the case of `C[C@@H](O)[C@@H]1NC(=O)[C@H](Cc2ccccc2)NC(=O)[C@@H](Cc2c[nH]c3ccccc23)NC(=O)[C@H]2CCCN2C(=O)[C@@H]2CCCN2C(=O)[C@H](Cc2ccccc2)NC1=O` [(18c), Cyclo (D-Pro-D-Trp-Phe-Thr-Phe-Pro)] (cyclo(FP[dP][dW]FT)), the IC50 (HIV-1 protease) is reported as 51 nM.

With `COc1ccc(C[C@@H]2NC(=O)[C@@H](Cc3c[nH]c4ccccc34)NC(=O)[C@H](Cc3ccccc3)NC(=O)[C@@H]3CCCN3C(=O)[C@H](Cc3ccccc3)NC(=O)[C@H]([C@@H](C)O)NC2=O)cc1` [(17e), Cyclo (Phe-D-Trp-p-MeO-Phe-Thr-Phe-Pro)] (cyclo(FPF[dW]Y(Me)T)) the IC50 (HIV-1 protease) was 130 nM.

Work on `C[C@@H](O)[C@@H]1NC(=O)[C@H](Cc2ccccc2)NC(=O)[C@@H](Cc2c[nH]c3ccccc23)NC(=O)[C@H](Cc2c[nH]c3ccccc23)NC(=O)[C@@H]2CCCN2C(=O)[C@H](Cc2ccccc2)NC1=O` [(18e), Cyclo (Trp-D-Trp-Phe-Thr-Phe-Pro)] (cyclo(FPW[dW]FT)) yielded an IC50 (HIV-1 protease) of 73 nM.

In the case of `C[C@@H](O)[C@@H]1NC(=O)[C@H](Cc2ccccc2)NC(=O)[C@@H](Cc2c[nH]c3ccccc23)NC(=O)[C@H](Cc2cccc3ccccc23)NC(=O)[C@@H]2CCCN2C(=O)[C@H](Cc2ccccc2)NC1=O` [(18i), Cyclo (Nal-D-Trp-Phe-Thr-Phe-Pro)] (cyclo([1Nal][dW]FTFP)), the IC50 (HIV-1 protease) is reported as 22 nM.

For `C[C@@H]1NC(=O)[C@@H]2CCCN2C(=O)[C@H](Cc2ccccc2)NC(=O)[C@H]([C@@H](C)O)NC(=O)[C@H](Cc2ccccc2)NC(=O)[C@@H](Cc2c[nH]c3ccccc23)NC1=O` [(18d), Cyclo (Ala-D-Trp-Phe-Thr-Phe-Pro)] (cyclo(A[dW]FTFP)), the IC50 (HIV-1 protease) was 2200 nM.

With `C[C@@H](O)[C@@H]1NC(=O)[C@H](Cc2ccccc2)NC(=O)[C@@H](Cc2c[nH]c3ccccc23)NC(=O)[C@H](CC(=O)O)NC(=O)[C@@H]2CCCN2C(=O)[C@H](Cc2ccccc2)NC1=O` [(18b), Cyclo (Asp-D-Trp-Phe-Thr-Phe-Pro)] (cyclo(D[dW]FTFP)) the IC50 (HIV-1 protease) was 4020 nM.

Work on `C[C@@H](O)[C@@H]1NC(=O)[C@H](Cc2ccccc2)NC(=O)[C@@H](Cc2c[nH]c3ccccc23)NC(=O)[C@@H](CCc2ccccc2)NC(=O)[C@@H]2CCCN2C(=O)[C@H](Cc2ccccc2)NC1=O` [(18g), Cyclo (D-Homo-Phe-D-Trp-Phe-Thr-Phe-Pro)] (cyclo(FP[d(hPhe)][dW]FT)) yielded an IC50 (HIV-1 protease) of 161 nM.

For `CC(C)[C@@H]1NC(=O)[C@H](CCCCN)NC(=O)[C@@H](Cc2c[nH]c3ccccc23)NC(=O)[C@H](Cc2ccc(O)cc2)NC(=O)[C@H](C)N(C)C(=O)[C@H](Cc2ccccc2)NC1=O` [MK 678, reference compound], the IC50 (SRIF receptor) was 60 nM.

In the case of `C[C@@H]1NC(=O)[C@@H](Cc2c[nH]c3ccccc23)NC(=O)[C@H](Cc2ccccc2)NC(=O)[C@@H]2CCCN2C(=O)[C@H](Cc2ccccc2)NC(=O)[C@H]([C@@H](C)O)NC1=O` [(17d), Cyclo (Phe-D-Trp-Ala-Thr-Phe-Pro)] (cyclo(ATFPF[dW])), the IC50 (HIV-1 protease) is reported as 9000 nM.

With `C[C@@H](O)[C@@H]1NC(=O)[C@H](Cc2ccccc2)NC(=O)[C@@H](Cc2c[nH]c3ccccc23)NC(=O)[C@H](CC2CCCCC2)NC(=O)[C@@H]2CCCN2C(=O)[C@H](Cc2ccccc2)NC1=O` [(18h), Cyclo (Cha-D-Trp-Phe-Thr-Phe-Pro)] (cyclo([Cha][dW]FTFP)) the IC50 (HIV-1 protease) was 700 nM.

`C[C@@H](O)[C@@H]1NC(=O)[C@H](Cc2ccccc2)NC(=O)[C@@H](Cc2c[nH]c3ccccc23)NC(=O)[C@@H](Cc2ccccc2)NC(=O)[C@@H]2CCCN2C(=O)[C@H](Cc2ccccc2)NC1=O` [(18f), Cyclo (D-Phe-D-Trp-Phe-Thr-Phe-Pro)] (cyclo(FP[dF][dW]FT)) gave an IC50 (HIV-1 protease) of 1120 nM.

`C[C@@H](O)[C@@H]1NC(=O)[C@H](CCCCN)NC(=O)[C@@H](Cc2c[nH]c3ccccc23)NC(=O)[C@H](Cc2ccccc2)NC(=O)[C@@H]2CCCN2C(=O)[C@H](Cc2ccccc2)NC1=O` [L-363,301, reference compound] (cyclo(PF[dW]KTF)) gave an IC50 (SRIF receptor) of 18.7 nM.

With `CC(C)C[C@@H]1NC(=O)[C@@H](Cc2c[nH]c3ccccc23)NC(=O)[C@H](Cc2ccccc2)NC(=O)[C@@H]2CCCN2C(=O)[C@H](Cc2ccccc2)NC(=O)[C@H]([C@@H](C)O)NC1=O` [(17a), Cyclo (Phe-D-Trp-Leu-Thr-Phe-Pro)] (cyclo(FPF[dW]LT)) the IC50 (HIV-1 protease) was 3420 nM.

In the case of `C[C@@H](O)[C@@H]1NC(=O)[C@H](Cc2ccccc2)NC(=O)[C@@H](Cc2c[nH]c3ccccc23)NC(=O)[C@H](Cc2ccccc2)NC(=O)[C@@H]2CCCN2C(=O)[C@H](Cc2ccccc2)NC1=O` [(17b), Cyclo (Phe-D-Trp-Phe-Thr-Phe-Pro)] (cyclo(FPF[dW]FT)), the IC50 (HIV-1 protease) is reported as 330 nM.

`C[C@@H](O)[C@@H]1NC(=O)[C@H](Cc2ccccc2)NC(=O)[C@@H](Cc2c[nH]c3ccccc23)NC(=O)[C@H](CO)NC(=O)[C@@H]2CCCN2C(=O)[C@H](Cc2ccccc2)NC1=O` [(18a), Cyclo (Ser-D-Trp-Phe-Thr-Phe-Pro)] (cyclo(FPS[dW]FT)) showed an IC50 (HIV-1 protease) of 2210 nM.
